# Laboratory results from patent US8232272B2, “Benzimidazoledihydrothiadiazinone derivatives as fructose-1,6-bisphosphatase inhibitors, and pharmaceutical compositions comprising same” (Merck Patent Gesellschaft mit beschränkter Haftung, priority 2007, dated 2012).
# Structures can show the parent of a compound that is named as a salt.
# Key:
# [1] = target: T1, recombinant human liver fructose-1,6-bisphosphatase (Homo sapiens, UniProt P09467); assay: Inhibition of recombinant human liver fructose-1,6-bisphosphatase (spectrophotometric coupled enzyme assay); type: biochemical; conditions: 0.167 mM fructose-1,6-bisphosphate, pH 7.5, room temperature, 30 minutes at 340 nm, read-out: Inhibition of human F-1,6-BPase IC50
# T1 sequence (P09467 1-338): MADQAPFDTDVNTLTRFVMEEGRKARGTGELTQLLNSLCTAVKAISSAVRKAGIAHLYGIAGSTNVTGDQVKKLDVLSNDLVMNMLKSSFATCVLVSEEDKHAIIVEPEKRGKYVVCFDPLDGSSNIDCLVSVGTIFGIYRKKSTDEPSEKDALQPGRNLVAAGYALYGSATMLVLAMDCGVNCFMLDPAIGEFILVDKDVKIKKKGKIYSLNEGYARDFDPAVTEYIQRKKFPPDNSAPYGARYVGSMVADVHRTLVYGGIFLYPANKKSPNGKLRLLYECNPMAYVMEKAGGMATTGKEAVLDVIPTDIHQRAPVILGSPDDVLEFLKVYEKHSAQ
# From the text: […]
# [2] = tested on: rat hepatocyte primary cultures (hepatic glucose production); assay: Hepatic production of glucose in rat hepatocyte primary cultures; type: cell-based, Wistar rat; conditions: rat hepatocytes incubated 3 hours with dihydroxyacetone (DHA) as substrate, control = DHA without compounds
# From the text: Effects of the Various Compounds Described Previously on the Hepatic Production of Glucose in Rat Hepatocyte Primary Cultures
# The hepatocytes are isolated from Wistar rat liver via the collagenase perfusion technique described by Seglen (Methods Cell Biol. 1975; 13, 29-83). The cell viability is confirmed by the exclusion test with trypan blue. The isolated hepatocytes are suspended in a William's medium supplemented with foetal calf serum (10%) in 6-well plates. After a 4-hour attachment period, the medium is aspirated to remove the cell debris and replaced with a serum-free and glucose-free MEM medium. The hepatocytes are then cultured for 16 to 18 hours (37° C.; 5% CO2). At the end of culturing and after having aspirated the medium, the glucose production is measured by incubating the hepatocytes for 3 hours in a Krebs buffer supplemented with dihydroxyacetone (DHA) as neoglucogenesis substrate, in the presence or absence of the various compounds described previously. The amount of glucose in the medium is measured in each culture well via a test with glucose oxidase (GOD). The cell protein content is evaluated via the Lowry method. The results are expressed in nanomoles of glucose produced per mg of cell protein. The activity of the test compounds is expressed as a percentage of the control (production of glucose in the presence of DHA but without compounds).
# Inhibition of Hepatic Glucose Production
melting point,IC50 [1],SMILES,Hepatic glucose production. % of the control at 30 μM [2]
100 to 105 °C,,COc1cccc(-c2nc3cc(C4=NNC(=O)SC4C)ccc3n2CC(C)C)c1 (stereo not shown),
207 to 209 °C,,"COc1cccc(-c2nc3cc(C4=NNC(=O)SC4)ccc3n2CC(C)C)c1 [Example 11, 5-[1-isobutyl-2-(3-methoxyphenyl)-1H-benzimidazol-5-yl]-3,6-dihydro-2H-1,3,4-thiadiazin-2-one]",
214 to 216 °C,,"CCn1c(-c2cccc(F)c2)nc2cc(C3=NNC(=O)SC3)ccc21 [Example 11-4, 5-[1-ethyl-2-(3-fluorophenyl)-1H-benzimidazol-5-yl]-3,6-dihydro-2H-1,3,4-thiadiazin-2-one]",
190 to 192 °C,,"CCCC1SC(=O)NN=C1c1ccc2c(c1)nc(-c1cccc(C(F)(F)F)c1)n2C (stereo not shown) [Example 11-5, 5-{1-methyl-2-[3-(trifluoromethyl)phenyl]-1H-benzimidazol-5-yl}-6-propyl-3,6-dihydro-2H-1,3,4-thiadiazin-2-one]",
221 to 223 °C,,"CCn1c(-c2cccc(OC)c2)nc2cc(C3=NNC(=O)SC3)ccc21 [Example 11-6, 5-[1-ethyl-2-(3-methoxyphenyl)-1H-benzimidazol-5-yl]-3,6-dihydro-2H-1,3,4-thiadiazin-2-one]",
,7 µM,"CC1SC(=O)N(C(C)C)N=C1c1ccc2c(c1)nc(-c1cccc(F)c1)n2C (stereo not shown) [Example 12-3, 5-[2-(3-fluorophenyl)-1-methyl-1H-benzimidazol-5-yl]-3-isopropyl-6-methyl-3,6-dihydro-2H-1,3,4-thiadiazin-2-one]",
,8.5 µM,"CCCN1N=C(c2ccc3c(c2)nc(-c2cccc(F)c2)n3C)C(C)SC1=O (stereo not shown) [Example 12-6, 5-[2-(3-fluorophenyl)-1-methyl-1H-benzimidazol-5-yl]-6-methyl-3-propyl-3,6-dihydro-2H-1,3,4-thiadiazin-2-one]",
,36 µM,"COc1cccc(-c2nc3cc(C4=NN(C)C(=O)SC4)ccc3n2C2CCCCCC2)c1 [Example 12-7, 5-[1-cycloheptyl-2-(3-methoxyphenyl)-1H-benzimidazol-5-yl]-3-methyl-3,6-dihydro-2H-1,3,4-thiadiazin-2-one]",
,,"COc1cccc(-c2nc3cc(C4=NNC(=O)SC4C)ccc3[nH]2)c1 (stereo not shown) [Example 26, 5-[2-(3-methoxyphenyl)-1H-benzimidazol-5-yl]-6-methyl-3,6-dihydro-2H-1,3,4-thiadiazin-2-one]",38 % of the control
,6.4 µM,"COc1cc(-c2nc3cc(C4=NNC(=O)SC4C)ccc3[nH]2)ccc1[S+](C)[O-] (stereo not shown) [Example 26-3, 5-{2-[3-methoxy-4-(methylsulfinyl)phenyl]-1H-benzimidazol-5-yl}-6-methyl-3,6-dihydro-2H-1,3,4-thiadiazin-2-one hydrochloride]",34 % of the control
,3.6 µM,"CC1SC(=O)NN=C1c1ccc2[nH]c(-c3ccc(-n4ccnc4)cc3)nc2c1 (stereo not shown) [Example 26-4, 5-{2-[4-(1H-imidazol-1-yl)phenyl]-1H-benzimidazol-5-yl}-6-methyl-3,6-dihydro-2H-1,3,4-thiadiazin-2-one dihydrochloride]",28 % of the control
